Reference: ChEMBL document CHEMBL4382260, “Synthesis and biological evaluation as antiangiogenic agents of ureas derived from 3'-aminocombretastatin A-4” (Eur J Med Chem, 2019)
Blank lines part the entries; values can stand above or below the compound they belong to. Activity calls are given as the source filed them. The rule behind the calls is not given here.

Columns and labels:
Tubulin (Homo sapiens) [1] = target: T1, Tubulin (Homo sapiens) (UniProt P68371+Q9H4B7+P0DPH7+P68366+Q13509+Q71U36+P04350+Q3ZCM7+P07437+P68363+Q9BQE3+Q6PEY2+Q13885+Q9BVA1+Q9BUF5); experiment: Disruption of microtubule network in human A549 cells assessed as compressed and fragmented nuclei at […] after 16 hrs by Hoechst staining based immunofluorescence microscopic method; type: cell-based
[2] = target: Vascular endothelial growth factor receptor 2 (Homo sapiens) (UniProt P35968); experiment: Inhibition of VEGFR2 internalization in HMEC1 cells assessed as membrane VEGFR2 level at 0.6 uM after 24 hrs by flow cytometry (reference value: 100%); type: cell-based; parameters: scale not given: the % may be the effect or the level left
[3] = target: Vascular endothelial growth factor receptor 2 (Homo sapiens) (UniProt P35968); experiment: Inhibition of VEGFR2 internalization in HMEC1 cells assessed as total VEGFR2 level at 0.6 uM after 24 hrs by flow cytometry (reference value: 100%); type: cell-based; parameters: scale not given: the % may be the effect or the level left
[4] = target: Vascular endothelial growth factor receptor 2 (Homo sapiens) (UniProt P35968); experiment: Inhibition of VEGFR2 internalization in HMEC1 cells at 0.6 uM after 24 hrs by immunofluorescence assay; type: cell-based
[5] = target: Vascular endothelial growth factor receptor 2 (Homo sapiens) (UniProt P35968); experiment: Inhibition of VEGFR2 internalization in human A549 cells at […] after 24 hrs by immunofluorescence assay; type: cell-based
Tubulin (Homo sapiens) [6] = target: T1, Tubulin (Homo sapiens); experiment: Disruption of microtubule network in human A549 cells assessed as compressed and fragmented nuclei at 28 uM after 16 hrs by Hoechst staining based immunofluorescence microscopic method; type: cell-based
[7] = target: Vascular endothelial growth factor receptor 2 (Homo sapiens) (UniProt P35968); experiment: Inhibition of VEGFR2 internalization in HMEC1 cells assessed as membrane VEGFR2 level at 12 uM after 24 hrs by flow cytometry (reference value: 100%); type: cell-based; parameters: scale not given: the % may be the effect or the level left
[8] = target: Vascular endothelial growth factor receptor 2 (Homo sapiens) (UniProt P35968); experiment: Inhibition of VEGFR2 internalization in HMEC1 cells assessed as total VEGFR2 level at 12 uM after 24 hrs by flow cytometry (reference value: 100%); type: cell-based; parameters: scale not given: the % may be the effect or the level left
[9] = target: Vascular endothelial growth factor receptor 2 (Homo sapiens) (UniProt P35968); experiment: Inhibition of VEGFR2 internalization in HMEC1 cells at 12 uM after 24 hrs by immunofluorescence assay; type: cell-based
[10] = target: Vascular endothelial growth factor receptor 2 (Homo sapiens) (UniProt P35968); experiment: Inhibition of VEGFR2 internalization in human A549 cells at 28 uM after 24 hrs by immunofluorescence assay; type: cell-based
[11] = target: Vascular endothelial growth factor receptor 2 (Homo sapiens) (UniProt P35968); experiment: Inhibition of VEGFR2 internalization in HMEC1 cells assessed as membrane VEGFR2 level at 120 uM after 24 hrs by flow cytometry (reference value: 100%); type: cell-based; parameters: scale not given: the % may be the effect or the level left
[12] = target: Vascular endothelial growth factor receptor 2 (Homo sapiens) (UniProt P35968); experiment: Inhibition of VEGFR2 internalization in HMEC1 cells assessed as total VEGFR2 level at 120 uM after 24 hrs by flow cytometry (reference value: 100%); type: cell-based; parameters: scale not given: the % may be the effect or the level left
[13] = target: Vascular endothelial growth factor receptor 2 (Homo sapiens) (UniProt P35968); experiment: Inhibition of VEGFR2 internalization in HMEC1 cells at 120 uM after 24 hrs by immunofluorescence assay; type: cell-based
[14] = target: Vascular endothelial growth factor receptor 2 (Homo sapiens) (UniProt P35968); experiment: Inhibition of VEGFR2 internalization in human A549 cells at 48 uM after 24 hrs by immunofluorescence assay; type: cell-based
A549 [15] = experiment: Cell cycle arrest in human A549 cells assessed as accumulation at subG0 phase at […] after 24 hrs by propidium iodide staining based flow cytometry (reference value: 2 +/- 0.8%); type: functional
A549 [16] = experiment: Cell cycle arrest in human A549 cells assessed as accumulation at G0/G1 phase at […] after 24 hrs by propidium iodide staining based flow cytometry (reference value: 60 +/- 1%); type: functional
A549 [17] = experiment: Cell cycle arrest in human A549 cells assessed as accumulation at S phase at […] after 24 hrs by propidium iodide staining based flow cytometry (reference value: 28 +/- 0.6%); type: functional
A549 [18] = experiment: Cell cycle arrest in human A549 cells assessed as accumulation at G2/M phase at […] after 24 hrs by propidium iodide staining based flow cytometry (reference value: 10 +/- 0.8%); type: functional
A549 [19] = experiment: Induction of apoptosis in human A549 cells at 100 uM after 20 to 24 hrs by Annexin V-FITC/propidium iodide staining based flow cytometry (reference value: 16%); type: functional
A549 [20] = experiment: Induction of apoptosis in human A549 cells at 50 uM after 20 to 24 hrs by Annexin V-FITC/propidium iodide staining based flow cytometry (reference value: 16%); type: functional
HL-60 = experiment: Antiproliferative activity against human HL60 cells by MTT assay; type: functional, cell-based
A549 [21] = experiment: Cell cycle arrest in human A549 cells assessed as accumulation at subG0 phase at 22 uM after 24 hrs by propidium iodide staining based flow cytometry (reference value: 2 +/- 0.8%); type: functional
A549 [22] = experiment: Cell cycle arrest in human A549 cells assessed as accumulation at G0/G1 phase at 22 uM after 24 hrs by propidium iodide staining based flow cytometry (reference value: 60 +/- 1%); type: functional
A549 [23] = experiment: Cell cycle arrest in human A549 cells assessed as accumulation at S phase at 22 uM after 24 hrs by propidium iodide staining based flow cytometry (reference value: 28 +/- 0.6%); type: functional
A549 [24] = experiment: Cell cycle arrest in human A549 cells assessed as accumulation at G2/M phase at 22 uM after 24 hrs by propidium iodide staining based flow cytometry (reference value: 10 +/- 0.8%); type: functional
HMEC-1 = experiment: Antiangiogenic activity against HMEC1 cells after 20 hrs by tube formation assay; details: Homo sapiens, HMEC-1, 20 h
[25] = target: Vascular endothelial growth factor receptor 2 (Homo sapiens) (UniProt P35968); experiment: Inhibition of VEGFR2 internalization in HMEC1 cells assessed as membrane VEGFR2 level at […] after 24 hrs by flow cytometry (reference value: 100%); type: cell-based; parameters: scale not given: the % may be the effect or the level left
[26] = target: Vascular endothelial growth factor receptor 2 (Homo sapiens) (UniProt P35968); experiment: Inhibition of VEGFR2 internalization in HMEC1 cells assessed as total VEGFR2 level at […] after 24 hrs by flow cytometry (reference value: 100%); type: cell-based; parameters: scale not given: the % may be the effect or the level left
Tubulin (Homo sapiens) [27] = target: T1, Tubulin (Homo sapiens); experiment: Disruption of microtubule network in human A549 cells assessed as compressed and fragmented nuclei at 18 uM after 16 hrs by Hoechst staining based immunofluorescence microscopic method; type: cell-based
[28] = target: Vascular endothelial growth factor receptor 2 (Homo sapiens) (UniProt P35968); experiment: Inhibition of VEGFR2 internalization in HMEC1 cells assessed as membrane VEGFR2 level at 8 uM after 24 hrs by flow cytometry (reference value: 100%); type: cell-based; parameters: scale not given: the % may be the effect or the level left
[29] = target: Vascular endothelial growth factor receptor 2 (Homo sapiens) (UniProt P35968); experiment: Inhibition of VEGFR2 internalization in HMEC1 cells assessed as total VEGFR2 level at 8 uM after 24 hrs by flow cytometry (reference value: 100%); type: cell-based; parameters: scale not given: the % may be the effect or the level left
[30] = target: Vascular endothelial growth factor receptor 2 (Homo sapiens) (UniProt P35968); experiment: Inhibition of VEGFR2 internalization in HMEC1 cells at 8 uM after 24 hrs by immunofluorescence assay; type: cell-based
[31] = target: Vascular endothelial growth factor receptor 2 (Homo sapiens) (UniProt P35968); experiment: Inhibition of VEGFR2 internalization in human A549 cells at 18 uM after 24 hrs by immunofluorescence assay; type: cell-based
[32] = target: Vascular endothelial growth factor receptor 2 (Homo sapiens) (UniProt P35968); experiment: Inhibition of VEGFR2 internalization in HMEC1 cells assessed as membrane VEGFR2 level at 6 uM after 24 hrs by flow cytometry (reference value: 100%); type: cell-based; parameters: scale not given: the % may be the effect or the level left
[33] = target: Vascular endothelial growth factor receptor 2 (Homo sapiens) (UniProt P35968); experiment: Inhibition of VEGFR2 internalization in HMEC1 cells assessed as total VEGFR2 level at 6 uM after 24 hrs by flow cytometry (reference value: 100%); type: cell-based; parameters: scale not given: the % may be the effect or the level left
[34] = target: Vascular endothelial growth factor receptor 2 (Homo sapiens) (UniProt P35968); experiment: Inhibition of VEGFR2 internalization in HMEC1 cells at 6 uM after 24 hrs by immunofluorescence assay; type: cell-based
[35] = target: Vascular endothelial growth factor receptor 2 (Homo sapiens) (UniProt P35968); experiment: Inhibition of VEGFR2 internalization in HMEC1 cells assessed as membrane VEGFR2 level at 15 uM after 24 hrs by flow cytometry (reference value: 100%); type: cell-based; parameters: scale not given: the % may be the effect or the level left
[36] = target: Vascular endothelial growth factor receptor 2 (Homo sapiens) (UniProt P35968); experiment: Inhibition of VEGFR2 internalization in HMEC1 cells assessed as total VEGFR2 level at 15 uM after 24 hrs by flow cytometry (reference value: 100%); type: cell-based; parameters: scale not given: the % may be the effect or the level left
[37] = target: Vascular endothelial growth factor receptor 2 (Homo sapiens) (UniProt P35968); experiment: Inhibition of VEGFR2 internalization in HMEC1 cells at 15 uM after 24 hrs by immunofluorescence assay; type: cell-based
[38] = target: Vascular endothelial growth factor receptor 2 (Homo sapiens) (UniProt P35968); experiment: Inhibition of VEGFR2 internalization in human A549 cells at 44 uM after 24 hrs by immunofluorescence assay; type: cell-based

Vascular endothelial growth factor receptor 2 (Homo sapiens), sequence (P35968 whole entry, the tested form may be a part): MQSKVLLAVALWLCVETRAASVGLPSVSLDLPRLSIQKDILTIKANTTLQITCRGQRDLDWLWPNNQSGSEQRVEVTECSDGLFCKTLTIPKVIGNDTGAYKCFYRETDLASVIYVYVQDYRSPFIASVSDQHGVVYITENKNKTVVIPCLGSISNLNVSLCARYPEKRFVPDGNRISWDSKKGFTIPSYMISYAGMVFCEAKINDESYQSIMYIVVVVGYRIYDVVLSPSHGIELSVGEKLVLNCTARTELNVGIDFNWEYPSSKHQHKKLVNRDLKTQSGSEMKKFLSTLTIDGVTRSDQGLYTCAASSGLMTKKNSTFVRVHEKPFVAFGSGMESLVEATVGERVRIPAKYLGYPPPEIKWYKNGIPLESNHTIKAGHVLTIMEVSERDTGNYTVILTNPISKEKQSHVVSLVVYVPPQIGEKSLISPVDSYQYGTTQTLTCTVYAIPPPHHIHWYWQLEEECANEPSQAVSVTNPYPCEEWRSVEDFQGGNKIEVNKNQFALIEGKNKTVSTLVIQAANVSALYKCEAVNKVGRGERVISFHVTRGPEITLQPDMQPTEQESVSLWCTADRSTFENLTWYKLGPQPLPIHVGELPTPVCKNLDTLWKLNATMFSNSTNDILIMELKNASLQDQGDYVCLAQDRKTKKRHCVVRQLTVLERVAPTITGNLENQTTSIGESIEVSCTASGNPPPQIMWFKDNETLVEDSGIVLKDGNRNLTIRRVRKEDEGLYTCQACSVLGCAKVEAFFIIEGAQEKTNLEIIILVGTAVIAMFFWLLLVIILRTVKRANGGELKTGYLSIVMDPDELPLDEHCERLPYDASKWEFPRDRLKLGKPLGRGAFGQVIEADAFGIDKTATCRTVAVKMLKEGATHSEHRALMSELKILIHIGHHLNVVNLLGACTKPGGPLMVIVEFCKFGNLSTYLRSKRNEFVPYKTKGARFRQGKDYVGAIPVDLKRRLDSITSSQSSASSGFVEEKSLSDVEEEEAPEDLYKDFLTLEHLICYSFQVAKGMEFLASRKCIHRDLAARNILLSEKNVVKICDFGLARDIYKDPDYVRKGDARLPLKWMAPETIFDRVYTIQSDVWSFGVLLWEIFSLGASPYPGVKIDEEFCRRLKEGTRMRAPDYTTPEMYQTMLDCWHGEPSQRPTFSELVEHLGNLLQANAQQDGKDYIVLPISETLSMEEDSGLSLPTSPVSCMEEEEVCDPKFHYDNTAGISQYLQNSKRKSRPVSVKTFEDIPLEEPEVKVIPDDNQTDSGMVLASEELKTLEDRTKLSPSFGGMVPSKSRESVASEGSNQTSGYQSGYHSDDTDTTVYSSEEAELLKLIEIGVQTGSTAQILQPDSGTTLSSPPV

Activity (Tubulin (Homo sapiens) [1]): Active
SMILES: COc1ccc(/C=C\c2cc(OC)c(OC)c(OC)c2)cc1NC(=O)Nc1cccc(Br)c1

Activity (Tubulin (Homo sapiens) [1]): Active | Activity [2]: 48% | Activity [3]: 80% | inhibition [4]: Active | inhibition [5]: Active
SMILES: COc1ccc(/C=C\c2cc(OC)c(OC)c(OC)c2)cc1NC(=O)Nc1ccccc1Br

Activity (Tubulin (Homo sapiens) [6]): Active | Activity [7]: 61% | Activity [8]: 148% | inhibition [9]: Active | inhibition [10]: Active
SMILES: COc1ccc(/C=C\c2cc(OC)c(OC)c(OC)c2)cc1NC(=O)Nc1ccc(C)c(C)c1

Activity [11]: 62% | Activity [12]: 15% | inhibition [13]: Active | inhibition [14]: Active
SMILES: COc1ccc(/C=C\c2cc(OC)c(OC)c(OC)c2)cc1NC(=O)Nc1cc(C)cc(C)c1

SMILES: COc1ccc(/C=C\c2cc(OC)c(OC)c(OC)c2)cc1N
Activity (A549 [15]): 14% | Activity (A549 [16]): 21% | Activity (A549 [17]): 24% | Activity (A549 [18]): 41% | Activity (A549 [19]): 52% | Activity (A549 [20]): 32%

IC50 (HL-60): 7 µM | IC50 (HMEC-1): 7 µM
SMILES: CCN(CC)CCNC(=O)c1c(C)[nH]c(/C=C2\C(=O)Nc3ccc(F)cc32)c1C [SUNITINIB]
Activity (A549 [21]): 2.4% | Activity (A549 [22]): 47% | Activity (A549 [23]): 35% | Activity (A549 [24]): 16% | Activity (A549 [19]): 45% | Activity (A549 [20]): 38%

Activity (Tubulin (Homo sapiens) [1]): Active | Activity [25]: 71% | Activity [26]: 97%
SMILES: COc1ccc(/C=C\c2cc(OC)c(OC)c(OC)c2)cc1NC(=O)Nc1cccc(Cl)c1C

IC50 (HL-60): 5 µM | IC50 (HMEC-1): 34 µM
SMILES: CNC(=O)c1cc(Oc2ccc(NC(=O)Nc3ccc(Cl)c(C(F)(F)F)c3)cc2)ccn1 [SORAFENIB]
Activity (A549 [19]): 38% | Activity (A549 [20]): 30%

Activity (Tubulin (Homo sapiens) [27]): Active | Activity [28]: 71% | Activity [29]: 87% | inhibition [30]: Active | inhibition [31]: Active
SMILES: COc1ccc(/C=C\c2cc(OC)c(OC)c(OC)c2)cc1NC(=O)Nc1cccc(C)c1

Activity [32]: 43% | Activity [33]: 46% | inhibition [34]: Active | inhibition [5]: Active
SMILES: COc1ccc(/C=C\c2cc(OC)c(OC)c(OC)c2)cc1NC(=O)Nc1ccccc1Cl

Activity [35]: 80% | Activity [36]: 100% | inhibition [37]: Active | inhibition [38]: Active
SMILES: COc1ccc(/C=C\c2cc(OC)c(OC)c(OC)c2)cc1NC(=O)Nc1ccc(Cl)c(C)c1
